Key:
[1] = system: SARS-CoV-2 virus; format: cell-based
[2] = Acute oral toxicity (oral gavage); format: in vivo, mice and rats
Procedure: (§1) Different doses of Chlorophyllin (100 to 5000 mg/kg body weight) were given to mice and rats (6 males, 6 females) by oral gavage in an accredited facility for animal toxicity testing.

[3] = 28 day repeat dose toxicity; format: in vivo, rats; conditions: 1000 mg/kg body weight daily for 28 consecutive days
Procedure: as §1

[4] = system: neutrophils; assay: Phase I study: absolute neutrophil count (ANC) in blood; format: in vivo, human
Procedure: (§2) An open label Phase I clinical study was conducted to assess pharmacodynamics of sodium copper Chlorophyllin in healthy adult, human male subjects under fasting conditions. The study was approved by Drug Controller General of India (DCGI). The trial is registered with the Clinical Trial Registry of India (CTRI/2018/09/015576). Five healthy male subjects were allowed to fast overnight and one Chlorophyllin tablet (750 mg) was administered to each subject by oral route along with ˜200 ml water. The subjects were given breakfast, lunch and snacks and a second tablet of Chlorophyllin (750 mg) was administered to each subject by oral route along with 200 ml water after 12 hr.
(§3) Chlorophyllin tablets comprising Chlorophyllin or salts thereof (750 mg), were administered to healthy human subjects after overnight fasting. Blood samples were collected through an indwelling intravenous cannula (Venflon) placed in the fore arm vein of the subjects at different time intervals. Absolute neutrophil count (ANC) and white blood cell (WBC) counts were measured. Serum was separated and chemokine concentration in the serum was measured using cytometric bead array.

[5] = system: white blood cells; assay: Phase I study: white blood cell (WBC) count in blood; format: in vivo, human; conditions: 8-16 hr after first dose of 750 mg
Procedure: as §2, §3

[6] = system: lymphocytes; assay: Phase I study: absolute lymphocyte count in blood; format: in vivo, human; conditions: 750 mg tablets, healthy subjects
Procedure: as §2, §3

[7] = system: CD34+ hematopoietic stem and progenitor cells; assay: Phase I study: CD34+ hematopoietic stem and progenitor cells in blood by flow cytometry; format: in vivo, human; conditions: 750 mg tablets, five subjects
Procedure: as §2
Blood sample at each time point was also collected in K2EDTA vacutainer tube and erythrocytes were lysed using RBC lysis buffer. Then cells were stained with fixable far red live dead reagent and PE-CD34 and FITC-CD45 antibodies at 4° C. and fixed with 4% formaldehyde. The frequency of CD34+ hematopoietic stem and progenitor cells in the blood was determined by flow cytometry and FlowJo software.

[8] = Phase I study: tolerability in healthy human subjects; format: in vivo; conditions: 750 mg given twice a day, five subjects
Procedure: as §2

[9] = system: Vero CCL-81 cells; conditions: 5 μM

## Sodium copper Chlorophyllin
[1]; 0.1 micro molar
  effect on SARS-CoV-2 virus multiplication: did not inhibit
[1]; 5 micro-molar, 72 hr, Vero CCL-81 cells
  inhibition of SARS-CoV-2 multiplication: ~87%
[1]; Vero CCL-81 cells, 72 hr
  concentration required for ~90% inhibition of multiplication of SARS-CoV-2 virus: about 5 micro molar
[1]; Vero CCL-81 cells, 72 hr, read-out: concentration required to inhibit SARS-CoV-2 multiplication by 50% (EC50)
  EC50: < 1000 nM
[1]; less than 1 micro-molar
  effect on multiplication of SARS-CoV-2 virus: did not significantly decrease
[2]; rodents, indicated doses (acute up to 5000 mg/kg; 1000 mg/kg for 28 days)
  signs of toxicity: no signs of toxicity
[2]; rodents, oral, proposed from absence of toxicity
  LD50: higher than 5000 mg/kg body weight
[2]; up to 5000 mg/kg body weight, oral gavage, mice and rats
  tolerability of acute oral dose: well tolerated
[3]
  tolerability of repeat dose: well tolerated
[4]; 750 mg, 4 hr before second dose
  time to ANC increase after first dose: ≤ 8 h
[4]; 8-16 hr after first dose of 750 mg, fasting, five subjects
  increase in ANC relative to pre-dose value: 12.4-32.5%
[5]
  increase in WBC count relative to pre-dose value: 12.8-26.5%
[6]
  increase in lymphocyte counts in human blood as compared to pre-dose value: up to 30%
[7]
  relative decrease in percentage of CD34+ HPSCs in human blood as compared to pre-dose value: 50-85%
[8]
  tolerability in human subjects: well tolerated
[9]
  cytotoxicity in the target cells: without causing cytotoxicity

Reference: US20220305023A1, “Chlorophyllin Containing Pharmaceutical Composition For Prevention Of Pathogenesis Of Coronavirus Disease” (priority 2021, published 2022)
